# Like-named read-outs stand apart in the source and are kept apart here.
# Legend:
# [1] = pharmacokinetic study of five major components after oral administration of BZD (HPLC-QQQ MS); type: in vivo, Sprague–Dawley (SD) rats; details: rats, oral BZD 15 g/kg; for half-life / AUC(0-t) / Cmax / Tmax / T1/2 / AUC0–t: n = 5; for AUC(0-t): read-out: AUC0–t; for ER (liver extraction ratio): from portal vein plasma and systemic plasma
# Method: The HPLC-QQQ MS method was developed according to a previous study in our group. Briefly, five compounds were simultaneously determined in plasma, liver and brain samples using a 1260 Series liquid chromatography system (Agilent Technologies, Palo Alto, CA, USA) coupled to a 6460 triple quadrupole mass spectrometer with an electrospray ionization source (Agilent Technologies, Palo Alto, CA, USA). Chromatographic separation was performed on an ACE Super C18 column (100 mm × 2.1 mm, 3.0 µm, Advanced Chromatography Technologies Ltd. Aberdeen, Scotland) at a temperature of 40 °C. The mobile phase consisted of water containing 0.1% formic acid (A) and acetonitrile containing 0.1% formic acid (B). The gradient program was performed as follows: 0–3 min, 92% A; 3.5–4.0 min, 88–60% A; 5.5–6 min, 60–55% A; 6.6–7 min, 55–5% A; 11–11.01 min, 5–92% A; 11.01–13.5 min, 92% A. The flow rate was set to 0.35 mL/min in the time range of 0–6.6 min and kept at 0.45 mL/min between 7 and 13.5 min. Five components were monitored in negative multiple reaction monitoring (MRM) mode. The parameters of the mass spectrometer were as follows: capillary voltage, 3500 V; nebulizer, 45 psi; gas temperature, 350 °C; gas flow rate, 12 L/min; sheath gas temperature, 400 °C; sheath gas flow rate, 8 L/min. MassHunter Workstation software (Agilent Technologies, Palo Alto, CA, USA) was used for system operation and data analysis.
# All Sprague–Dawley (SD) rats and ICR mice were purchased from Shanghai SLAC Laboratory Animal Co., Ltd. and kept in the breeding room at 22 ± 2 °C and 50 ± 10% humidity in Shanghai Institute of Materia Medica (SIMM). The experimental protocols were approved by the Institutional Animal Care and Use Committee in SIMM. After 1 week of acclimation, all the SD rats were orally administered BZD (15 g/kg). The biological samples were collected from the rats after fasting for 12 h. After anaesthetization, the rats were dissected at 5 min, 15 min, 30 min, 1 h, 2 h, 4 h, 7 h, 10 h, 20 h and 40 h (n = 5 for each time-point). The hepatic portal vein plasma (2 mL) and the systemic plasma (6–8 mL) were subsequently harvested, and finally the liver and brain tissue samples were collected. The plasma sample were centrifuged at 9500×g for 5 min, and the tissue samples were washed with saline solution. All samples were stored at − 80 °C until analysis. The samples were prepared according to the method described in the previous study by our group.
# A noncompartmental analysis was carried out using WinNonlin software (Pharsight 6.2, NC, USA) to calculate the PK parameters. The significance of the results in behavior assessment was analyzed by unpaired Student’s t-tests. A P value less than 0.05 was considered significant. The liver extraction ratio (ER) indicated the fraction of hepatic clearance and first-pass effect, and the calculation formula was as reported in a previous study by our group.
# ICR mice [2] = assay: forced swimming test (FST); type: in vivo; details: Table 4, oral administration for 8 days, n = 8, 10 mg/kg, control 118.1 ± 24.3
# Method: (§1) The antidepressant activity of the drugs was evaluated by classic behavioral measurements, such as the forced swimming test (FST) and tail suspension test (TST). All the ICR mice were randomly divided into several groups (n = 8) as follows: a control group with stimulation and different test groups subjected to FST and TST after the oral administration of different drugs for 8 days, including fluoxetine (10 mg/kg), BZD (3 g/kg), ZD (3 g/kg), Baihe decoction (BD, 3 g/kg), PZ (21.2 mg/kg), XZ (21.2 mg/kg), SZ (21.2 mg/kg), timosaponin BII (10 mg/kg) and timosaponin BIII (10 mg/kg).
# (§2) The FST was performed according to a previously described method with minor modifications. Briefly, each mouse was individually placed in an open water-filled cylinder (H: 50 cm; Ø: 20 cm; water depth: 35 cm; temperature: 23–25 °C) and allowed to swim for a period of 6 min. The total time of immobility was recorded during the last 4 min of the testing duration. Immobility is defined as the mice floating in the water without movement. The TST was conducted as described in the literature. Briefly, the mice were suspended 20 cm above the floor for 6 min. The time of immobility was recorded after the first 2 min. Mice in a completely motionless state were considered immobile.
# ICR mice [3] = assay: tail suspension test (TST); type: in vivo; details: Table 4, oral administration for 8 days, n = 8, 10 mg/kg, control 102.0 ± 16.9
# Method: as §1, §2
# serotonin (5-HT) = assay: content of serotonin (5-HT) by ELISA kit; type: in vivo, ICR mice; details: Table 5; 10 mg/kg oral; control 636.2 ± 80.1
# Method: as §1
# (§3) The contents of dopamine (DA) and serotonin (5-HT) in the plasma were determined using ELISA Kits (Shanghai Jianglai Biotech Co., Ltd., Shanghai, China) according to the manufacturer’s instructions.
# dopamine (DA) = assay: content of dopamine (DA) by ELISA kit; type: in vivo, ICR mice; details: Table 5; 10 mg/kg oral; control 171.6 ± 54.5
# Method: as §1, §3
# depressive rats = details: cited from earlier work
# [4] = Sprague-Dawley, rat, hepatic portal vein plasma, po, 15 g/kg, portal vein plasma
# [5] = Sprague-Dawley, rat, hepatic portal vein plasma, po, 15 g/kg, portal vein plasma, read-out: Cmax
# [6] = Sprague-Dawley, rat, hepatic portal vein plasma, po, 15 g/kg, portal vein plasma, read-out: Tmax
# [7] = Sprague-Dawley, rat, liver, po, 15 g/kg, liver, read-out: Cmax
# [8] = Sprague-Dawley, rat, liver, po, 15 g/kg, liver, read-out: Tmax
# [9] = Sprague-Dawley, rat, liver, po, 15 g/kg
# [10] = Sprague-Dawley, rat, systemic plasma, po, 15 g/kg, systemic plasma
# [11] = Sprague-Dawley, rat, systemic plasma, po, 15 g/kg, systemic plasma, read-out: Cmax
# [12] = Sprague-Dawley, rat, systemic plasma, po, 15 g/kg, systemic plasma, read-out: Tmax
# [13] = Sprague-Dawley, rat, systemic plasma, po, 15 g/kg
Structure (SMILES),"half-life [1, 4] [h]","AUC(0-t) [1, 4] [ng·h/mL]","Cmax [1, 5] [ng/mL]","Tmax [1, 6] [h]","Cmax [1, 7] [ng/g]","Tmax [1, 8] [h]","half-life [1, 9] [h]","AUC(0-t) [1, 10] [ng·h/mL]","Cmax [1, 11] [ng/mL]","Tmax [1, 12] [h]","half-life [1, 13] [h]",ER (liver extraction ratio) [1] [%],"Immobility time (mean ± SD, s) FST (ICR mice [2]) [s]","Immobility time (mean ± SD, s) TST (ICR mice [3]) [s]",Content (ng/g) 5-HT (serotonin (5-HT)) [ng/g],Content (ng/g) DA (dopamine (DA)) [ng/g],further results
"C[C@H]1CC[C@@]2(OC1)O[C@H]1C[C@H]3[C@@H]4CC[C@@H]5C[C@@H](O[C@@H]6O[C@H](CO)[C@H](O)[C@H](O)[C@H]6O[C@@H]6O[C@H](CO)[C@@H](O)[C@H](O)[C@H]6O)CC[C@]5(C)[C@H]4CC[C@]3(C)[C@H]1[C@@H]2C [Timosaponin AIII, timosaponin AIII]",10.3,583 ± 105,61.8 ± 25.6,4,9360 ± 244,20,12.2,156 ± 21.6,16 ± 5.16,4,11.2,73.20,,,,,ER (liver extraction ratio) ([1]; listed as timosaponin AIII): 73.21%
"C[C@@H](CC[C@@]1(O)O[C@H]2C[C@H]3[C@@H]4CC[C@@H]5C[C@@H](O[C@@H]6O[C@H](CO)[C@H](O)[C@H](O)[C@H]6O[C@@H]6O[C@H](CO)[C@@H](O)[C@H](O)[C@H]6O)CC[C@]5(C)[C@H]4CC[C@]3(C)[C@H]2[C@@H]1C)CO[C@@H]1O[C@H](CO)[C@@H](O)[C@H](O)[C@H]1O [Timosaponin BII, timosaponin BII]",119,1090 ± 184,880 ± 160,0.25,302 ± 102,0.08,116,976 ± 254,277 ± 48.4,0.25,35.8,10.88,72.1 ± 19.6,48.2 ± 23.1,716.5 ± 90.4,196.9 ± 56.7,"Cmax ([1]; Sprague-Dawley, rat, cerebellum, po, 15 g/kg, cerebellum, read-out: Cmax): 1170 ± 93.4 ng/g; Tmax ([1]; Sprague-Dawley, rat, cerebellum, po, 15 g/kg, cerebellum, read-out: Tmax): 0.25 h; half-life ([1]; Sprague-Dawley, rat, cerebellum, po, 15 g/kg): 16.2 h; Cmax ([1]; Sprague-Dawley, rat, hippocampus, po, 15 g/kg, hippocampus, read-out: Cmax): 372 ± 154 ng/g; Tmax ([1]; Sprague-Dawley, rat, hippocampus, po, 15 g/kg, hippocampus, read-out: Tmax): 10 h; half-life ([1]; Sprague-Dawley, rat, hippocampus, po, 15 g/kg): 27.4 h; ER (liver extraction ratio) ([1]; listed as timosaponin BII): 10.88%; antidepressant effect (depressive rats; depressive rats, likely related to the content of 5-HT in the brain): significant antidepressant effect"
"CC1=C(CC[C@H](C)CO[C@@H]2O[C@H](CO)[C@@H](O)[C@H](O)[C@H]2O)O[C@H]2C[C@H]3[C@@H]4CC[C@@H]5C[C@@H](O[C@@H]6O[C@H](CO)[C@H](O)[C@H](O)[C@H]6O[C@@H]6O[C@H](CO)[C@@H](O)[C@H](O)[C@H]6O)CC[C@]5(C)[C@H]4CC[C@]3(C)[C@@H]12 [Timosaponin BIII, timosaponin BIII]",,,,,,,,,,,,11.57,68.6 ± 23.2,58.4 ± 15.6,705.6 ± 47.7,191.3 ± 69.8,"Cmax ([1]; cerebellum): 349.41 ± 34.90 ng/g; T1/2 ([1]; cerebellum): 20.65 h; Tmax ([1]; cerebellum): 0.25 h; ER (liver extraction ratio) ([1]; listed as timosaponin BIII): 11.57%; Cmax ([1]; hippocampus): 198.23 ± 122.31 ng/g; T1/2 ([1]; hippocampus): 1.52 h; Tmax ([1]; hippocampus): 1.00 h; Cmax ([1]; liver): 158.66 ± 22.12 ng/g; T1/2 ([1]; liver): 13.81 h; Tmax ([1]; liver): 0.08 h; AUC0–t ([1]; portal vein plasma): 369.20 ± 74.63 ng/mL; Cmax ([1]; portal vein plasma): 226.39 ± 43.92 ng/mL; T1/2 ([1]; portal vein plasma): 16.59 h; Tmax ([1]; portal vein plasma): 0.25 h; AUC0–t ([1]; systemic plasma): 326.47 ± 54.29 ng/mL; Cmax ([1]; systemic plasma): 114.14 ± 13.38 ng/mL; T1/2 ([1]; systemic plasma): 22.82 h; Tmax ([1]; systemic plasma): 0.25 h; antidepressant effect (depressive rats; rats, by regulating inflammatory cytokines, BNDF signaling and synaptic plasticity): significantly ameliorated depressive effects"

# Source: paper PMC6757420, “Identifying the active components of Baihe–Zhimu decoction that ameliorate depressive disease by an effective integrated strategy: a systemic pharmacokinetics study combined with classical depression model tests” (Chinese Medicine, 2019)
